Experimental data: paper PMC11480532, “The rapid-reaction kinetics of an electron-bifurcating flavoprotein, the crotonyl-CoA-dependent NADH:ferredoxin oxidoreductase EtfAB:bcd” (The Journal of Biological Chemistry, 2024)
pKd: −log10 of the molar value.

Columns and labels:
[1] = target: T1, EtfAB:bcd (crotonyl-CoA-dependent NADH:ferredoxin oxidoreductase), NADH site on the bifurcating FAD of EtfAB (Megasphaera elsdenii, UniProt G0VLZ5+G0VLZ6); assay: stopped-flow at […] nm, hyperbolic fit of kobs of bf FAD reduction; assay type: biochemical; conditions: oxidized complex, 6.5 μM; 50 mM Tris-HCl, 150 mM NaCl, pH 7.5, 10 °C; anaerobic; no ferredoxin or crotonyl-CoA; fast phase (bf FAD); read-out: apparent Kd
T1 construct: gene MELS_2127; full-length recombinant EtfAB and bcd, each with C-terminal Strep-II tag, E. coli BL21, mixed equimolar; assignment of Mels_2126 to EtfA and Mels_2127 to EtfB is inferred from the printed order; with Electron transfer flavoprotein subunit alpha; Acyl-CoA dehydrogenase, short-chain specific (butyryl-CoA dehydrogenase)
T1 sequence (G0VLZ6 1-270): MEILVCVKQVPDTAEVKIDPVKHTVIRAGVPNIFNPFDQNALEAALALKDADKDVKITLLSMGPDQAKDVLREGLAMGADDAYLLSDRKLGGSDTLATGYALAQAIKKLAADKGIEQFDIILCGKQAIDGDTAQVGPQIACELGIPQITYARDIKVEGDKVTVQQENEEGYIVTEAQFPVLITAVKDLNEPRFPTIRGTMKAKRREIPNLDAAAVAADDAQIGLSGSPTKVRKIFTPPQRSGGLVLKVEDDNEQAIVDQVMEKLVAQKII
T1 sequence (G0VLZ5 1-338): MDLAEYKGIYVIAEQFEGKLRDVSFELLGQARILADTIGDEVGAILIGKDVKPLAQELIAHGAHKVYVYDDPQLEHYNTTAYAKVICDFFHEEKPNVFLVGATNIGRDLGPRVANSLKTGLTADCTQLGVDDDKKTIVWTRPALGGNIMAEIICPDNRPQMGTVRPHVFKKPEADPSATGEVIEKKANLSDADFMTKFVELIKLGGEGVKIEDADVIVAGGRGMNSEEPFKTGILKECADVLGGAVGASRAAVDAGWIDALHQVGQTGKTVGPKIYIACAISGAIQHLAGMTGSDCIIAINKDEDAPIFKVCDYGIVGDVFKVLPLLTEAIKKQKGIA
T1 sequence (G0VLZ7 1-383 partner): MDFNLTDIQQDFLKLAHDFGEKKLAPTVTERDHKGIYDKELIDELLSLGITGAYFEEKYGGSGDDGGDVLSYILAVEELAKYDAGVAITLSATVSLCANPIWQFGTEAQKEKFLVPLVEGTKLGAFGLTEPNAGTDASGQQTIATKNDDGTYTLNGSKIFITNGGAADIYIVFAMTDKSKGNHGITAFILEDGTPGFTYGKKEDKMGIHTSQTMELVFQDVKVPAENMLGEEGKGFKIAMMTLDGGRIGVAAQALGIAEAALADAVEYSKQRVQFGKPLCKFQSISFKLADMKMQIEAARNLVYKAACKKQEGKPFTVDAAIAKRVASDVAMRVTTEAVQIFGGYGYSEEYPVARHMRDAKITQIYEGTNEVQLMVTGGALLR

[2] = target: T2, EtfAB:bcd (crotonyl-CoA-dependent NADH:ferredoxin oxidoreductase), crotonyl-CoA site on bcd (Megasphaera elsdenii, UniProt G0VLZ7); assay: stopped-flow reoxidation of dithionite-reduced complex; charge-transfer absorbance; oxidative titration; assay type: biochemical; conditions: fully reduced EtfAB:bcd; 50 mM Tris-HCl, 150 mM NaCl, pH 7.5, 10 °C; anaerobic; no ferredoxin
T2 construct: gene MELS_2128; same complex as P1; bcd freed of persulfide-CoA adduct by dithionite; C-terminal Strep-II tags, E. coli BL21; with Electron transfer flavoprotein subunit alpha; Electron transfer flavoprotein subunit beta
T2 sequence (G0VLZ7 1-383): T1 sequence (G0VLZ7 1-383 partner)
T2 sequence (G0VLZ5 1-338 partner): T1 sequence (G0VLZ5 1-338)
T2 sequence (G0VLZ6 1-270 partner): T1 sequence (G0VLZ6 1-270)

Structure (SMILES)	pKd [1]	stopped-flow reoxidation of dithionite-reduced complex; charge-transfer absorban [2]
NC(=O)C1=CN([C@@H]2O[C@H](COP(=O)(O)OP(=O)(O)OC[C@H]3O[C@@H](n4cnc5c(N)ncnc54)[C@H](O)[C@@H]3O)[C@@H](O)[C@H]2O)C=CC1 [NADH]	4.37	
C/C=C/C(=O)SCCNC(=O)CCNC(=O)[C@H](O)C(C)(C)COP(=O)(O)OP(=O)(O)OC[C@H]1O[C@@H](n2cnc3c(N)ncnc32)[C@H](O)[C@@H]1OP(=O)(O)O [crotonyl-CoA]		reoxidation of dithionite-reduced EtfAB:bcd6e- by crotonyl-CoA, which exhibits a [crotonyl-CoA]-independent rate constant
